# Data: PubChem BioAssay AID1259408 (Genetic Toxicology Data Bank (GENE-TOX), 2018)
# The source made the active and inactive calls. The rule behind the calls is not given here.
# System: GENE-TOX genotoxicity assays, various organisms and cells
# Assay: GENE-TOX mutagenicity studies
# Conditions: for call: Assay Type: In vivo carcinogenicity studies, Assay Code: CCGT
# Source text: GENE-TOX provides genetic toxicology (mutagenicity) test data from expert peer review of open scientific literature for more than 3,000 chemicals from the United States Environmental Protection Agency (EPA). GENE-TOX was established to select assay systems for evaluation, review data in the scientific literature, and recommend proper testing protocols and evaluation procedures for these systems.
# GENE-TOX covers the years 1991 - 1998. It is no longer updated.
# This is an archive assay for GENE-TOX mutagenicity studies.
# [1] = Species/Cell Type: Human, Assay Type: Sister-chromatid exchange (SCE) in vitro, Assay Code: SC1+D, Dose Response: With dose response, Evaluation Type: Evaluation A (Pre-1980)
# [2] = Species/Cell Type: Mammalian polychromatic erythrocytes, Assay Type: Micronucleus test, chromosome aberrations, Assay Code: MNTT, Evaluation Type: Evaluation B (Post-1980)
# [3] = Species/Cell Type: Nonhuman, Assay Type: Sister-chromatid exchange (SCE) in vitro, Assay Code: SC2+D, Dose Response: With dose response, Evaluation Type: Evaluation B (Post-1980)
# [4] = Species/Cell Type: Nonhuman, Evaluation Type: Evaluation A (Pre-1980)
# [5] = Species/Cell Type: Salmonella typhimurium (one or more of the five standard strains: TA98, TA100, TA1535, TA1537, and TA1538), Assay Type: Histidine reverse gene mutation, Ames assay, Assay Code: SAL+, Evaluation Type: Evaluation A (Pre-1980)
# [6] = Species/Cell Type: Salmonella typhimurium (one or more of the five standard strains: TA98, TA100, TA1535, TA1537, and TA1538), Assay Type: Histidine reverse gene mutation, Ames assay, Assay Code: SALT, Evaluation Type: Evaluation A (Pre-1980)
# [7] = Species/Cell Type: Rodents, Sex: Male, Assay Type: Dominant lethal test, Assay Code: DLT-, Evaluation Type: Evaluation A (Pre-1980)
# [8] = Species/Cell Type: Saccharomyces cerevisiae, Assay Type: Reverse gene mutation, Assay Code: YERT, Evaluation Type: Evaluation A (Pre-1980)
# [9] = Species/Cell Type: Saccharomyces cerevisiae, Assay Type: Mitotic recombination or gene conversion, Assay Code: YEH-, Evaluation Type: Evaluation A (Pre-1980)
# [10] = Species/Cell Type: Drosophila melanogaster, Assay Type: Sex-linked recessive lethal gene mutation, Assay Code: SRL+, Evaluation Type: Evaluation A (Pre-1980)
smiles,measurement,setting,value
CCOC(=O)/C=C(C)/C=C/C=C(C)/C=C/c1c(C)cc(OC)c(C)c1C,mutagenic call,[1],active; positive
same,mutagenic call,[2],no conclusion
same,mutagenic call,"Species/Cell Type: Nonhuman, Assay Type: Sister-chromatid exchange (SCE) in vitro, Assay Code: SC2T, Evaluation Type: Evaluation B (Post-1980)",no conclusion
CCC(=O)ONC(=O)c1ccc2ccccc2c1,mutagenic call,[3],active; positive
Cc1c2ccccc2c(C)c2c1ccc1c(O)cccc12,mutagenic call,"Species/Cell Type: Chinese hamster lung (V79) cells, Assay Type: Forward gene mutation at the HPRT or ouabain locus, Assay Code: V79-*, Activation: With metabolic activation, Evaluation Type: Evaluation A (Pre-1980)",inactive; negative
same,call,[4],no conclusion
Nc1nc(N)c2nc(CNc3ccc(C(=O)N[C@@H](CCC(=O)O)C(=O)O)cc3)cnc2n1,mutagenic call,"Species/Cell Type: Mammalian polychromatic erythrocytes, Assay Type: Micronucleus test, chromosome aberrations, Assay Code: MNT+, Evaluation Type: Evaluation A (Pre-1980)",active; positive
same,mutagenic call,"Species/Cell Type: Mouse, Sex: Male, Assay Type: Sperm morphology, Assay Code: SPI+, Evaluation Type: Evaluation A (Pre-1980)",active; positive
same,mutagenic call,"Species/Cell Type: Neurospora crassa, Assay Type: Aneuploidy, chromosome aberrations, Assay Code: NEN-, Evaluation Type: Evaluation A (Pre-1980)",inactive; negative
same,mutagenic call,"Species/Cell Type: Saccharomyces cerevisiae, Assay Type: Mitotic recombination or gene conversion, Assay Code: YEH+, Evaluation Type: Evaluation A (Pre-1980)",active; positive
COc1cc2c(c3oc(=O)c4c(c13)CCC4=O)[C@H]1[C@@H](O2)O[C@@H](Cl)[C@@H]1Cl,mutagenic call,[5],active; positive
CS(=O)(=O)OCCNC[C@@H](O)[C@@H](O)CNCCOS(C)(=O)=O,mutagenic call,"Species/Cell Type: Human lymphocytes, Assay Type: Sister-chromatid exchange (SCE) in vitro, Assay Code: SCL+D, Dose Response: With dose response, Evaluation Type: Evaluation A (Pre-1980)",active; positive
same,mutagenic call,[1],active; positive
Nc1nnc(/C(=C/c2ccc([N+](=O)[O-])o2)c2ccco2)o1,mutagenic call,"Species/Cell Type: Human diploid fibroblasts, Assay Type: Unscheduled DNA synthesis (UDS) in vitro, DNA effects, Assay Code: UDH+, Evaluation Type: Evaluation A (Pre-1980)",active; positive
COc1ccc2c3c([nH]c2c1)[C@H](CC(C)(C)O)N1C(=O)[C@@H]2CCCN2C(=O)[C@]1(O)[C@H]3O,mutagenic call,[6],no conclusion
ClCc1c2ccccc2cc2c1ccc1ccccc12,mutagenic call,[5],active; positive
CCOC(=O)Nc1ccc(-c2c3ccccc3c3cc(N)ccc3[n+]2C)cc1,mutagenic call,[5],active; positive
NC1(C(=O)O)CCCC1,mutagenic call,"Species/Cell Type: Escherichia coli polA (W3119 vs P3478), Assay Type: Rec-assay, DNA effects (bacterial DNA repair), Assay Code: RE1T, Evaluation Type: Evaluation A (Pre-1980)",no conclusion
OCc1ccc(-c2ccccc2)cc1,mutagenic call,"Species/Cell Type: Chinese hamster ovary (CHO) cells, Assay Type: Forward gene mutation at the HPRT locus, Assay Code: CHOT, Evaluation Type: Evaluation B (Post-1980)",no conclusion
same,mutagenic call,"Species/Cell Type: Mammalian polychromatic erythrocytes, Assay Type: Micronucleus test, chromosome aberrations, Assay Code: MNT+U, Dose Response: Unconfirmed positive response, Evaluation Type: Evaluation B (Post-1980)",active; positive
CCCC(C)(C)C(=O)Nc1ccc(Cl)cc1,mutagenic call,"Species/Cell Type: Saccharomyces cerevisiae, Assay Type: Mitotic recombination or gene conversion, Assay Code: YEC-, Evaluation Type: Evaluation A (Pre-1980)",inactive; negative
F[Si-2](F)(F)(F)(F)F,mutagenic call,[2],no conclusion
OCCN1CCN(C2Cc3cc(Cl)ccc3Sc3ccccc32)CC1 (stereo not drawn),mutagenic call,[7],inactive; negative
COc1cc(Cc2cnc(N)nc2N)cc(OC)c1OC,mutagenic call,"Species/Cell Type: Neurospora crassa, Assay Type: Aneuploidy, chromosome aberrations, Assay Code: NEN+, Evaluation Type: Evaluation A (Pre-1980)",active; positive
same,mutagenic call,"Species/Cell Type: Nonhuman, Assay Type: Sister-chromatid exchange (SCE) in vitro, Assay Code: SC2+, Evaluation Type: Evaluation B (Post-1980)",active; positive
CCOC(=O)COc1ccc(Br)cc1CCl (tested in a mixture with another compound),mutagenic call,[8],no conclusion
Oc1cc(Cl)c(-c2cc(Cl)ccc2Cl)cc1Cl,mutagenic call,[6],no conclusion
O=CNc1nc(-c2cc([N+](=O)[O-])c[nH]2)cs1,mutagenic call,[6],no conclusion
CCOC(=O)CSc1ccc2c3c(cccc13)C(=O)c1ccccc1-2,mutagenic call,"Species/Cell Type: Salmonella typhimurium (one or more of the five standard strains: TA98, TA100, TA1535, TA1537, and TA1538), Assay Type: Histidine reverse gene mutation, Ames assay, Assay Code: SAL+*, Activation: With metabolic activation, Evaluation Type: Evaluation A (Pre-1980)",active; positive
O[C@H]1c2ccccc2-c2cc3ccccc3cc2[C@@H]1O,mutagenic call,"Species/Cell Type: Chinese hamster lung (V79) cells, Assay Type: Forward gene mutation at the HPRT or ouabain locus, Assay Code: V79-, Evaluation Type: Evaluation A (Pre-1980)",inactive; negative
same,mutagenic call,"Species/Cell Type: Mouse prostate cells, Assay Type: Cell transformation, Assay Code: CTM-, Evaluation Type: Evaluation A (Pre-1980)",inactive; negative
same,call,[4],no conclusion
same,mutagenic call,[3],active; positive
same,mutagenic call,[6],no conclusion
same,mutagenic call,"Species/Cell Type: Syrian hamster embryo (SHE) cells, Assay Type: Cell transformation, clonal assay, Assay Code: CTC+, Evaluation Type: Evaluation A (Pre-1980)",active; positive
Cc1ccc(C2CO2)cc1C (stereo not drawn),mutagenic call,"Species/Cell Type: Escherichia coli WP2, Assay Type: Tryptophan reverse gene mutation, Assay Code: WP2+D, Dose Response: With dose response, Evaluation Type: Evaluation A (Pre-1980)",active; positive
same,mutagenic call,"Species/Cell Type: Escherichia coli WP2 UVRA, Assay Type: Tryptophan reverse gene mutation, Assay Code: WPU+D, Dose Response: With dose response, Evaluation Type: Evaluation A (Pre-1980)",active; positive
COc1ccccc1-c1ccccc1,mutagenic call,[9],inactive; negative
same,mutagenic call,"Species/Cell Type: Salmonella typhimurium (one or more of the five standard strains: TA98, TA100, TA1535, TA1537, and TA1538), Assay Type: Histidine reverse gene mutation, Ames assay, Assay Code: SAL-, Evaluation Type: Evaluation A (Pre-1980)",inactive; negative
O=NN1CCCNC1=O,mutagenic call,[5],active; positive
C[CH2][Hg][N](c1ccccc1)S(=O)(=O)c1ccc(C)cc1,mutagenic call,[10],active; positive
CCOS(=O)(=O)CC,mutagenic call,"Species/Cell Type: Arabidopsis species, Assay Type: Gene mutation, Assay Code: ARM+, Evaluation Type: Evaluation A (Pre-1980)",active; positive
same,mutagenic call,"Species/Cell Type: Hordeum vulgare (barley), Assay Type: Chromosome aberrations, Assay Code: HOC-, Evaluation Type: Evaluation A (Pre-1980)",inactive; negative
same,mutagenic call,"Species/Cell Type: Hordeum vulgare (barley), Assay Type: Gene mutation, Assay Code: HOM+D, Dose Response: With dose response, Evaluation Type: Evaluation A (Pre-1980)",active; positive
Cc1cc2c(ccc3ccccc32)c2c1C(=O)CC2,mutagenic call,[6],no conclusion
ClC(Cl)Br,mutagenic call,"Species/Cell Type: Human lymphocytes, Assay Type: Sister-chromatid exchange (SCE) in vitro, Assay Code: SCL+D, Dose Response: With dose response, Evaluation Type: Evaluation B (Post-1980)",active; positive
same,mutagenic call,"Species/Cell Type: Human, Assay Type: Sister-chromatid exchange (SCE) in vitro, Assay Code: SC1+D, Dose Response: With dose response, Evaluation Type: Evaluation B (Post-1980)",active; positive
same,mutagenic call,"Species/Cell Type: Nonhuman, Assay Type: Sister-chromatid exchange (SCE) in vivo, Assay Code: SC3+D, Dose Response: With dose response, Evaluation Type: Evaluation B (Post-1980)",active; positive
same,mutagenic call,[9],inactive; negative
same,mutagenic call,[5],active; positive
Clc1ccc(N=Nc2ccc(Cl)c(Cl)c2)cc1Cl,mutagenic call,"Species/Cell Type: Aspergillus nidulans, Assay Type: Forward gene mutation, Assay Code: ASF+, Evaluation Type: Evaluation A (Pre-1980)",active; positive
same,mutagenic call,"Species/Cell Type: Rat primary hepatocytes, Assay Type: Unscheduled DNA synthesis (UDS) in vitro, DNA effects, Assay Code: UDP+D, Dose Response: With dose response, Evaluation Type: Evaluation A (Pre-1980)",active; positive
O=c1ccc2cc3ccoc3cc2o1,mutagenic call,"Species/Cell Type: Mammalian cell culture, nonhuman, Assay Type: Micronucleus test in vitro, chromosome aberrations, Assay Code: MN&+, Evaluation Type: Evaluation A (Pre-1980)",active; positive
same,mutagenic call,[8],no conclusion
CN(C)c1ccc(N(C)C)c2c1C(=O)c1c(O)ccc(O)c1C2=O,mutagenic call,[5],active; positive
CC(C)NCC1CCc2cc(CO)c([N+](=O)[O-])cc2N1 (stereo not drawn),mutagenic call,[7],inactive; negative
same,mutagenic call,[5],active; positive
same,mutagenic call,"Species/Cell Type: Salmonella typhimurium, Assay Type: Forward and reverse gene mutation, body fluid assay, Assay Code: BFU+, Evaluation Type: Evaluation A (Pre-1980)",active; positive
same,mutagenic call,"Species/Cell Type: Salmonella typhimurium, Assay Type: Forward and reverse gene mutation, host-mediated assay, Assay Code: HMA+, Evaluation Type: Evaluation A (Pre-1980)",active; positive
CCCOc1nc2c(c(=O)n(C)c(=O)n2C)n1C,mutagenic call,"Species/Cell Type: Allium cepa, Assay Type: Chromosome aberrations, Assay Code: ALC+D, Dose Response: With dose response, Evaluation Type: Evaluation A (Pre-1980)",active; positive
C[C@@H]1C(=O)OCC2=CCN3CC[C@@H](OC(=O)[C@@H](C)[C@@]1(C)O)[C@@H]23,mutagenic call,[10],active; positive
same,mutagenic call,"Species/Cell Type: Drosophila melanogaster, Sex: Male, Assay Type: Heritable translocation test, chromosome aberrations, Assay Code: DHT+, Evaluation Type: Evaluation A (Pre-1980)",active; positive
Nc1cc(Cl)c(Cl)cc1N,mutagenic call,[2],no conclusion
